Measured values as given in article PMC10820135, “Pharmacokinetic, Tissue Distribution, Metabolite, and Toxicity Evaluation of the Matrine Derivative, (6aS, 10S, 11aR, 11bR, 11cS)-10-Methylaminododecahydro-3a, 7a-Diaza-benzo (de) Anthracene-8-thione” (Molecules, 2024).

What was measured:
[1] = Metabolite profiling of MASM in rats by UHPLC-QQQ-MS/MS; assay type: in vivo, Sprague-Dawley rats; conditions: rat, MASM i.p. 80 mg/kg, i.g. 60 mg/kg
Description: The identification of the in vivo metabolites of MASM was conducted using UHPLC-QQQ-MS/MS combined with standard references and deuterium-labeled MASM. The findings are presented in Table 2, while the proposed primary metabolic pathway of MASM in rats is depicted in Figure 4. To provide a comprehensive understanding of the metabolite identification process, three representative metabolites of MASM are presented, with their identification relying on primary and secondary mass spectrometry data, standard references, and deuterium-labeled MASM. The remaining metabolites are detailed in Supplementary File S4. For instance, the identification of the metabolite, M1, as a demethylation product of MASM was accomplished through the utilization of MS, MS/MS data, and the standard reference. […] Moreover, the identification of M1 as the demethylation metabolite of MASM was accomplished using the standard reference synthesized in our laboratory. […] Secondly, the metabolite, M2, of MASM was identified as the dehydrogenation product of MASM through the utilization of MS and MS/MS data. […] Consequently, M2 was identified as a dehydrogenation metabolite of M1. Thirdly, through the utilization of MS, MS/MS data, and deuterium-labeled MASM, the metabolite, M8, of MASM was determined to be a dehydrogenation product of MASM. […] The major MS/MS fragment ions of M8 were found at m/z 111.92, 178.77, 150.16, and 135.85, which aligned with the characteristic cleavage pattern of matrine. Additionally, our lab synthesized deuterium-labeled MASM to further support our proposed structure. […] Consequently, M8 was identified as a dehydrogenation metabolite of MASM. The EIC, MS/MS spectrum of M8 and deuterium-labeled MASM are all depicted in Figure 5C.
UHPLC analysis was performed using a Thermo Accela AS system, employing an ACQUITY UPLC®BEH C18 (Waters Corporation, Wexfords, Ireland) (1.7 µm, 2.1 × 100 mm) column and a binary solvent system consisting of water containing 0.1% formic acid as mobile phase A and acetonitrile as mobile phase B. For pharmacokinetic evaluation, the gradient elution was set as follows: 97% A from 0 to 2 min, 97–70% A from 2 to 3 min, 70–20% A from 3 to 3.5 min, 20% A from 3.5 to 3.6 min, 20–97% A from 3.6 to 3.7 min, and 97% A from 3.7 to 5 min. For the metabolic test, the gradient elution in full scan mode was set as follows: 97% A from 0 to 2 min, 97–70% A from 2 to 4 min, 70–20% A from 4 to 6 min, 20% A from 6 to 7 min, 20–97% A from 7 to 8 min, and 97% A from 8 to 10 min. The flow rate was 0.2 mL/min, with a temperature of 40 °C maintained and an injection volume of 5 μL. The QQQ-MS/MS analysis was conducted using a Thermo TSQ QUANTUM ACCESS MAX system equipped with an electrospray ionization (ESI) source. The spray voltages were set at 4.0 kV and 2.5 kV for positive and negative ion modes, respectively; capillary and vaporizer temperatures were 320 °C and 350 °C, respectively; sheath and aux gas pressures were 35 and 10 psi, respectively.
Seventy Sprague-Dawley rats were fasted overnight before dosing, with free access to water. Subsequently, the rats were randomly and equally divided into 7 groups: the control groups received 3 different routes of administration: intravenous, intraperitoneal, and intragastric (NS, saline 1 mL/100 g); MASM intraperitoneal group (A, i.p. 80 mg/kg), MASM intragastrical group (B, i.g. 60 mg/kg), MASM intravenous group (C, i.v. 15 mg/kg), and DMASM intragastrical group (D, i.g. 60 mg/kg). It is important to note that the recommended clinical dose of matrine injection is 0.15 g, which is equivalent to a dosage of 15 mg/kg in rats. MASM was administered via tail vein injection at a dosage of 1 mL/100 g for intravenous dosing, while for intraperitoneal dosing, MASM was injected at the lower-right side of the abdomen of rats. […]

[2] = cited from earlier work
mice = conditions: cited from earlier work

SMILES | Method of Administration after which the metabolite of MASM was found [1] | further results
O=C1CCC[C@@H]2[C@H]3CCCN4CCC[C@@H](CN12)[C@@H]34 [matrine] |  | time of peak plasma concentration of matrine ([2]; after oral administration, ref Zhang et al. 11): 2.1 h; bioavailability of matrine ([2]; reported value, ref Yang et al. 12): 18.5%; LD50 of matrine (mice): 83.21 mg/kg
O=C1CCC[C@@H]2[C@H]3CCC[N+]4([O-])CCC[C@@H](CN12)[C@@H]34 (stereo partly shown) [M5, oxymatrine] | i.p. i.g. | 
O=C1C=CC[C@@H]2[C@H]3CCC[N+]4([O-])CCC[C@@H](CN12)[C@@H]34 (stereo partly shown) [M4, oxysophocarpine] | i.p. i.g. | 
CN[C@@H]1CC(=S)N2CC3CCCN4C=CCC(C34)C2C1 (stereo partly shown) [M8] | i.g. | 

More lines, main results first:

Method of Administration after which the metabolite of MASM was found [1] | SMILES | further results
i.p. i.g. | CNC1CC(S)N2CC3CCCN4CCCC(C34)C2C1 (stereo not shown) [M6] | 
i.g. | O=CNC1CC(=S)N2CC3CCCN4CCCC(C34)C2C1 (stereo not shown) [M10] | 
i.g. | OCNC1CC(=S)N2CC3CCCN4CCCC(C34)C2C1 (stereo not shown) [M9] | 
i.p. i.g. | NC1CC(=S)N2CC3CCCN4CCCC(C34)C2C1 (stereo not shown) [M7] | 
